{"source": "patent US20250346643A1", "about": "“TROPOMYOSIN KINASE RECEPTOR (TRK) LIGANDS AS THERAPEUTICS TO SUPPORT LIVER REGENERATION” (Vanderbilt University, priority 2024, published 2025)", "key": {"[1]": {"system": "CCND1", "assay": "Western blot of CCND1 in HepG2 cell lysates", "format": "cell-based, human", "description": "(§1) Human HepG2 and mouse AML12 cells were grown in 6-well plates. Cells were treated with NTF3 (20 ng/ml) purchased from STEMCELL technologies, Vancouver, Canada (cat. 78074), R&D Systems, Minneapolis, MN (267-N3), Gibco, Waltham, MA (PHC7036) and/or Loxo-195 (5-10 nM) (Selleckchem, Houston, TX; S8636) in complete growth media without L-glutamine for 2 hours. Lyophilized NTF3 was solubilized with sterile filtered PBS supplemented with 0.1% BSA, aliquoted and stored at −80° C. until use. […] HepG2 and AML12 cells were collected on ice in PBS, centrifuged for 10 sec […] cell pellet homogenized in RIPA buffer containing inhibitors (Roche, Basel, Switzerland; complete Mini proteinase inhibitor, 1×HALT phosphatase inhibitors, Thermo Scientific, Waltham, MA; cat. 78428). Cell lysates were sonicated and centrifuged for 10 min at 18,800×g. Protein concentration of supernatants were determined by Direct Detect Spectrophotometer (MilliporeSigma, Burlington, MA).\nFor immunoblot analysis, 30-50 μg of protein diluted in LSD sample buffer (Invitrogen, Waltham, MA) were analyzed per SDS-PAGE (NuPAGE™, Invitrogen, Waltham, MA) using MOPS buffer or MES buffer (Invitrogen, Waltham, MA). Gels were stained with Coomassie (Bio-Safe Coomassie G-250 Stain, Bio-Rad, Hercules, CA) and transferred onto PVDF membranes using semi-dry blotting (Trans-Blot SD, Bio-Rad, Hercules, CA). Images were visualized on an Amersham™ Imager 680 (Cytiva, Marlborough, MA). Semi-quantitative band densitometry was performed using ImageJ software (version 1.53)."}, "[2]": {"system": "CCND1", "assay": "Western blot of CCND1 in AML12 cell lysates", "format": "cell-based, mouse", "conditions": "AML12 (FIG. 9I-J)", "description": "as §1\nFor immunoblot analysis, 30-50 μg of protein diluted in LSD sample buffer (Invitrogen, Waltham, MA) were analyzed per SDS-PAGE (NuPAGE™, Invitrogen, Waltham, MA) using MOPS buffer or MES buffer (Invitrogen, Waltham, MA). […] Semi-quantitative band densitometry was performed using ImageJ software (version 1.53)."}, "[3]": {"system": "liver regeneration after partial hepatectomy", "format": "in vivo, mouse", "description": "Partial hepatectomy. All surgeries were performed per the National Institutes of Health recommendations contained in the Guide for the Care and Use of Laboratory. Mice were anesthetized with isoflurane and received preoperative extended-release buprenorphine subcutaneous (s.c.) for analgesia and eye ointment for protection. […] The evisceration of the median and left lateral lobes allowed suture ligation and ˜70% hepatectomy. Skin and abdominal muscles were closed in a two-step procedure. Mice were euthanized 1 h, 24 h, 2 days, 3 days, and 4 days after partial hepatectomy, and tissues were collected for processing. To test if recombinant NTF3 promotes liver regeneration, mice were injected intravenous (i.v.) with recombinant NTF3 (STEMCELL Technologies, Vancouver, Canada; catalog no. 78074, lot nos. 1000070683 and 1000077434) diluted in sterile 0.9% saline (0.9% NaCl) or vehicle only at approximately 1 hour prior to partial hepatectomy. Mice were then injected i.v. once per day with recombinant NTF3 or vehicle at 20 ng/g body weight until sacrifice. Lyophilized NTF3 was solubilized in 0.1% BSA/PBS (Sigma-Aldrich, St. Louis, MO; A3059) and stored at −80° C. until use.\nSerum chemistry. Whole blood was collected in blood collection tubes supplemented with lithium heparin (BD vacutainer, Franklin Lakes, NJ; Cat.366664). Blood was centrifuged at 4000 g for 15 min and the plasma collected and stored at −80° C. until analysis. Plasma was analyzed on a VetScan® vs2 (Abaxis, Union City, CA) using mammalian liver profile analysis discs (Abaxis, Union City, CA; 500-0040) according to the manufacturer's instructions.\nImmunohistochemistry. For immunohistochemistry, formalin-fixed paraffin-embedded (FFPE) sections were cut at a 4-μm thickness, and slides were incubated at 65° C. for 30 min. Slides were deparaffinized in Histo-Clear® (National Diagnostics, Charlotte, NC; HS2001GLL) and rehydrated by an ethanol gradient. Heat antigen retrieval was performed in 10 mM sodium citrate (pH 6.0) in a pressure cooker (Cuisinart®, CPC-600C), for 20 min at high pressure, natural pressure release for 30 min, and cooled at room temperature for 30 min. Endogenous peroxidase quenching was performed with 1.5% hydrogen peroxide (Sigma-Aldrich, St. Louis, MO; H1009) for 20 min, and slides were washed twice in PBS. Blocking was performed for 30 min with Protein Block, Serum-free (Agilent, Santa Clara, CA; X090930-2). The primary antibody was diluted in antibody diluent (Agilent, Santa Clara, CA; S080983-2) and applied to the slides in a wet chamber overnight at 4° C. After two washes in PBS, slides were incubated with the appropriate secondary antibody for 30 min, followed by two washes in PBS. […] The same reveal time was then used on all experimental slides. Slides were stained with hematoxylin (Sigma-Aldrich, St. Louis, MO; GHS332) for 30 s, washed gently in lukewarm tap water for 5 min, and washed twice in distilled water, followed by two washes in PBS (pH 7.4). Slides were washed in increasing ethanol/water gradients, followed by three washes in Histo-Clear®. Whole-slide scans for subsequent analyses and publishing were obtained using an SCN400 slide scanner (Leica, Wetzlar, Germany). Whole-slide images were processed and annotated in QuPath 0.5.1."}, "[4]": {"conditions": "2 days after partial hepatectomy, NTF3 20 ng/g i.v. once per day"}, "[5]": {"conditions": "4 days after partial hepatectomy, NTF3 20 ng/g i.v. once per day"}}, "note": "Where two headings read alike, the source gives them in different places.", "data": [{"substance": "NTF3: neurotrophin-3, recombinant protein; HSC-derived hepatocyte mitogen, ligand of TRKA, TRKB, TRKC", "values": [{"measurement": "CCND1 amounts, NTF3 from three different vendors", "setting": "[1]; HepG2 (FIG. 9K-L)", "result": "CCND1 amounts increased"}, {"measurement": "CCND1 abundance", "setting": "[1]; HepG2, NTF3 20 ng/ml, 2 hours (FIG. 8I-J)", "result": "increased CCND1 abundance"}, {"measurement": "CCND1 amounts, NTF3 from three different vendors", "setting": "[2]", "result": "CCND1 amounts increased"}, {"measurement": "liver to body weight ratio vs vehicle", "setting": "[3]; [4]", "result": "similar"}, {"measurement": "number of Ki67+ hepatocytes vs vehicle", "setting": "[3]; [4]", "result": "significantly increased"}, {"measurement": "number of Ki67+ hepatocytes vs vehicle", "setting": "[3]; 4 days after partial hepatectomy", "result": "increased number"}, {"measurement": "liver to body weight ratio vs controls", "setting": "[3]; [5]", "result": "significantly increased"}, {"measurement": "relative increase of liver to body weight ratio compared to controls", "setting": "[3]; [5]", "result": "10-23%"}, {"measurement": "adverse effects", "setting": "[3]; mouse, in vivo", "result": "no adverse effects"}, {"measurement": "serum ALP vs vehicle", "setting": "[3]; mouse, in vivo", "result": "similar"}, {"measurement": "serum ALT vs vehicle", "setting": "[3]; mouse, in vivo", "result": "similar"}, {"measurement": "serum albumin vs vehicle", "setting": "[3]; mouse, in vivo", "result": "similar"}]}]}
